Data reported in article PMC8942544, “Design and synthesis of benzodiazepines as brain penetrating PARP-1 inhibitors” (Journal of Enzyme Inhibition and Medicinal Chemistry, 2022).

molecular target: T1, PARP-1 (Homo sapiens, UniProt P09874); experiment: PARP-1 enzyme inhibition assay (BPS Bioscience PARP Colorimetric Assay Kit); format: biochemical; settings: compound concentration 50 nM; three independent tests
T1 construct: purchased BPS Bioscience 80580
Procedure: All target compounds were evaluated for PARP-1 enzyme inhibition activity at the concentration of 50 nM determined by previous pre-experiments.
The ability of the compounds to inhibit PARP-1 enzyme activity was assessed using BPS Bioscience's PARP Colorimetric Assay Kit (BPS Bioscience, Catalog # 80580). PARP-1 is known to catalyse the NAD-dependent addition of poly(ADP-ribose) to histones. The PARP-1 assay kit comes in a convenient 96-well format, with purified PARP-1 enzyme, histone mixture, activated DNA, and PARP-1 assay buffer. The key to the PARP-1 Colorimetric Activity Assay is the biotinylated substrate. With this kit, only three simple steps are required for PARP-1 reactions. First, histone proteins are coated on a 96-well plate. Next, the PARP-1 biotinylated substrate is incubated with an assay buffer that contains the PARP-1 enzyme. Finally, the plate is treated with streptavidin-HRP followed by the addition of the colorimetric HRP substrate to produce colour that can then be measured using a UV/Vis spectrophotometer microplate reader. IC50 values were calculated using GraphPad Prism5 software.

T1 sequence (P09874 whole entry): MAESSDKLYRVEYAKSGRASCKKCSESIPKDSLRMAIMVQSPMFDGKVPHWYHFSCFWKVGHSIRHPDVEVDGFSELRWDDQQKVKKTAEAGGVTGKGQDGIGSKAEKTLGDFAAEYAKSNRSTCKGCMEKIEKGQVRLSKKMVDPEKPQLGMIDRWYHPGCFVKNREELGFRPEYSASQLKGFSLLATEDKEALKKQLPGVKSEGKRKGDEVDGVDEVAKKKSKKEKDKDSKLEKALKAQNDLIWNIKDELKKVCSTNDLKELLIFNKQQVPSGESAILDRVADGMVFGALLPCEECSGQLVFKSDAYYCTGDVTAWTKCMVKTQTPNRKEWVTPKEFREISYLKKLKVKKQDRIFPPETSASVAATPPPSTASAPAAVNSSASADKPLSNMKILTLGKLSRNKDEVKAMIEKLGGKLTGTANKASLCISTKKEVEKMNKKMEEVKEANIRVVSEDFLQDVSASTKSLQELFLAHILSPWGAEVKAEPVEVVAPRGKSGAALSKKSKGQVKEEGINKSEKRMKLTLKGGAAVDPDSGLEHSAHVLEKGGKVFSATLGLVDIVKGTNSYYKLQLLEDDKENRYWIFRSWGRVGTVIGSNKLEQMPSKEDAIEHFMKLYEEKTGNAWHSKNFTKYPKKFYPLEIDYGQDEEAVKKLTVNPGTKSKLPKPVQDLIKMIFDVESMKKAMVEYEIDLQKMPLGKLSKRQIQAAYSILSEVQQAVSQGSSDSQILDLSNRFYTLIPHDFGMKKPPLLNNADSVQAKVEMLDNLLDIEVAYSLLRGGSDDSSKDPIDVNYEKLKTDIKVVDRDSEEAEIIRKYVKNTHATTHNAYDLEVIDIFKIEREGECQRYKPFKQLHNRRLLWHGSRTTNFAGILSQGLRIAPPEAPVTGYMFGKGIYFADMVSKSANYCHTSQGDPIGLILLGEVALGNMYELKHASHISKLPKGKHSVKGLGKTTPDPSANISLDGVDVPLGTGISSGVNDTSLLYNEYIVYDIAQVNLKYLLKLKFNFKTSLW

Row | Structure (SMILES) | inhibition at 0.05 µM
1 | CC(=O)N1CCN(c2ccc(C3CNC(=O)c4ccccc4N3)cc2)CC1 (stereo not shown) [Compound H54, 2-(4-(4-Acetylpiperazin-1-yl)phenyl)-1,2,3,4-tetrahydro-5H-benzo[e][1,4]diazepin-5-one] | 34.6 ± 6.8%
2 | Nc1cccc(-c2ccc(C3CNC(=O)c4ccccc4N3)cc2)c1 (stereo not shown) [Compound H47, 2-(3′-Amino-[1,1′-biphenyl]-4-yl)-1,2,3,4-tetrahydro-5H-benzo[e][1,4]diazepin-5-one] | 48.7 ± 5.7%
3 | O=C1NCC(c2ccc(Br)cc2)Nc2ccccc21 (stereo not shown) [Compound H27, 2-(4-Bromophenyl)-1,2,3,4-tetrahydro-5H-benzo[e][1,4]diazepin-5-one] | 43.2 ± 2.5%
4 | CN1CC(c2ccc(Br)cc2)Nc2ccccc2C1=O (stereo not shown) [Compound H28, 2-(4-Bromophenyl)-4-methyl-1,2,3,4-tetrahydro-5H-benzo[e][1,4]diazepin-5-one] | 24 ± 5.7%
5 | O=C1NCC(c2ccc(-c3ccc(C(F)(F)F)cc3)cc2)=Nc2ccccc21 [Compound H44, 2-(4′-(Trifluoromethyl)-[1,1′-biphenyl]-4-yl)-3,4-dihydro-5H-benzo[e][1,4]diazepin-5-one] | 45.1 ± 5.2%
6 | O=C1NCCNc2ccccc21 [Compound H1] | 6.2 ± 5.2%
7 | COc1ncc(-c2ccc(C3=Nc4ccccc4C(=O)NC3)cc2)cc1N [Compound H40, 2-(4-(5-Amino-6-methoxypyridin-3-yl)phenyl)-3,4-dihydro-5H-benzo[e][1,4]diazepin-5-one] | 35.4 ± 2.4%
8 | CN1CC(c2ccc(Br)cc2)N(C)c2ccccc2C1=O (stereo not shown) [Compound H29, 2-(4-Bromophenyl)-1,4-dimethyl-1,2,3,4-tetrahydro-5H-benzo[e][1,4]diazepin-5-one] | 22.1 ± 3.2%
9 | O=C1NCC(c2ccc(F)cc2F)Nc2ccccc21 (stereo not shown) [Compound H24, 2-(2,4-Difluorophenyl)-1,2,3,4-tetrahydro-5H-benzo[e][1,4]diazepin-5-one] | 34.8 ± 2.1%
10 | O=C1NCC(c2cccc(F)c2)=Nc2ccccc21 [Compound H9, 2-(3-Fluorophenyl)-3,4-dihydro-5H-benzo[e][1,4]diazepin-5-one] | 36.6 ± 3%
11 | O=C1NCC(c2ccc(-c3cccc(C(F)(F)F)c3)cc2)=Nc2ccccc21 [Compound H43, 2-(3′-(Trifluoromethyl)-[1,1′-biphenyl]-4-yl)-3,4-dihydro-5H-benzo[e][1,4]diazepin-5-one] | 41.4 ± 3.5%
12 | O=C1NCC(c2ccc(Br)cc2)=Nc2ccccc21 [Compound H19, 2-(4-Bromophenyl)-3,4-dihydro-5H-benzo[e][1,4]diazepin-5-one] | 38.4 ± 1.9%
13 | O=C1NCC(c2cc(F)cc(F)c2)Nc2ccccc21 (stereo not shown) [Compound H25, 2-(3,5-Difluorophenyl)-1,2,3,4-tetrahydro-5H-benzo[e][1,4]diazepin-5-one] | 39.2 ± 4.5%
14 | O=C1NCC(c2cccc(F)c2)Nc2ccccc21 (stereo not shown) [Compound H23, 2-(3-Fluorophenyl)-1,2,3,4-tetrahydro-5H-benzo[e][1,4]diazepin-5-one] | 32.1 ± 1.6%
15 | O=C1NCC(c2ccc(F)cc2F)=Nc2ccccc21 [Compound H14, 2-(2,4-Difluorophenyl)-3,4-dihydro-5H-benzo[e][1,4]diazepin-5-one] | 36.1 ± 3.6%
16 | O=C1NCC(c2ccc(Cl)cc2)=Nc2ccccc21 [Compound H10, 2-(4-Chlorophenyl)-3,4-dihydro-5H-benzo[e][1,4]diazepin-5-one] | 33 ± 2.4%
17 | COc1cccc(C2CNC(=O)c3ccccc3N2)c1 (stereo not shown) [Compound H21, 2-(3-Methoxyphenyl)-1,2,3,4-tetrahydro-5H-benzo[e][1,4]diazepin-5-one] | 27.3 ± 2.3%

Row | Structure (SMILES) | inhibition at 0.05 µM
18 | O=C1NCC(c2ccc3ccccc3c2)=Nc2ccccc21 [Compound H18, 2-(Naphthalen-2-yl)-3,4-dihydro-5H-benzo[e][1,4]diazepin-5-one] | 35.9 ± 2.2%
19 | Nc1ccc(-c2ccc(C3=Nc4ccccc4C(=O)NC3)cc2)cc1 [Compound H37, 2-(4′-Amino-[1,1′-biphenyl]-4-yl)-3,4-dihydro-5H-benzo[e][1,4]diazepin-5-one] | 46.1 ± 3.9%
20 | O=C1NCC(c2ccc(F)cc2)=Nc2ccccc21 [Compound H8, 2-(4-Fluorophenyl)-3,4-dihydro-5H-benzo[e][1,4]diazepin-5-one] | 32.1 ± 3.6%
21 | Nc1ncc(-c2ccc(C3=Nc4ccccc4C(=O)NC3)cc2)cn1 [Compound H39, 2-(4-(2-Aminopyrimidin-5-yl)phenyl)-3,4-dihydro-5H-benzo[e][1,4]diazepin-5-one] | 33.9 ± 5.3%
22 | O=C1NCC(c2ccc(-c3cccc(C(F)(F)F)c3)cc2)Nc2ccccc21 (stereo not shown) [Compound H51, 2-(3′-(Trifluoromethyl)-[1,1′-biphenyl]-4-yl)-1,2,3,4-tetrahydro-5H-benzo[e][1,4]diazepin-5-one] | 48.8 ± 3.7%
23 | COc1ccc(C2CNC(=O)c3ccccc3N2)cc1OC (stereo not shown) [Compound H26, 2-(3,4-Dimethoxyphenyl)-1,2,3,4-tetrahydro-5H-benzo[e][1,4]diazepin-5-one] | 37.4 ± 3.9%
24 | Cn1nccc1-c1ccc(C2=Nc3ccccc3C(=O)NC2)cc1 [Compound H35, 2-(4-(1-Methyl-1H-pyrazol-5-yl)phenyl)-3,4-dihydro-5H-benzo[e][1,4]diazepin-5-one] | 44.3 ± 6.2%
25 | Nc1cccc(-c2ccc(C3=Nc4ccccc4C(=O)NC3)cc2)c1 [Compound H36, 2-(3'-Amino-[1,1'-biphenyl]-4-yl)-3,4-dihydro-5H-benzo[e][1,4]diazepin-5-one] | 40.8 ± 4.7%
26 | O=C1CCNc2ccccc2N1 [Compound H3] | 3.6 ± 2.5%
27 | COc1cccc(-c2ccc(C3CNC(=O)c4ccccc4N3)cc2)c1 (stereo not shown) [Compound H49, 2-(3′-Methoxy-[1,1′-biphenyl]-4-yl)-1,2,3,4-tetrahydro-5H-benzo[e][1,4]diazepin-5-one] | 38.5 ± 4.5%
28 | CC1NC(=O)c2ccccc2N=C1c1ccc(Br)cc1 (stereo not shown) [Compound H30, 2-(4-Bromophenyl)-3-methyl-3,4-dihydro-5H-benzo[e][1,4]diazepin-5-one] | 39.8 ± 4.2%
29 | COc1cccc(-c2ccc(C3=Nc4ccccc4C(=O)NC3)cc2)c1 [Compound H41, 2-(3′-Methoxy-[1,1′-biphenyl]-4-yl)-3,4-dihydro-5H-benzo[e][1,4]diazepin-5-one] | 28.3 ± 8.8%
30 | O=C1NCC(c2cccc(Cl)c2)=Nc2ccccc21 [Compound H11, 2-(3-Chlorophenyl)-3,4-dihydro-5H-benzo[e][1,4]diazepin-5-one] | 28.7 ± 2.6%
31 | Cc1ccc(C2=Nc3ccccc3C(=O)NC2)cc1 [Compound H5, 2-(p-Tolyl)-3,4-dihydro-5H-benzo[e][1,4]diazepin-5-one] | 37.1 ± 2.7%
32 | O=C1NCC(c2ccc(F)cc2)Nc2ccccc21 (stereo not shown) [Compound H22, 2-(4-Fluorophenyl)-1,2,3,4-tetrahydro-5H-benzo[e][1,4]diazepin-5-one] | 33 ± 3%
33 | O=C1NCC(c2ccccc2)=Nc2ccccc21 [Compound H4, 2-Phenyl-3,4-dihydro-5H-benzo[e][1,4]diazepin-5-one] | 28.8 ± 3.4%
34 | COc1ccc(C2CNC(=O)c3ccccc3N2)cc1 (stereo not shown) [Compound H20, 2-(4-Methoxyphenyl)-1,2,3,4-tetrahydro-5H-benzo[e][1,4]diazepin-5-one] | 27.9 ± 1.8%
